In patent US6995136B1, “Peptide fragments of murine epidermal growth factor as laminin receptor targets” (The Queen's University of Belfast, priority 1998, dated 2006):

Legend:
[1] = test system: angiogenesis in the chick; details: already known in the field; cited from earlier work
[2] = target: T1, 67 kDa laminin receptor (67-LR) (Homo sapiens, UniProt P08865); test: 125I-laminin displacement (competition binding) on T47-D or SK HEP-1 cells; details: relative to mEGF(33-42); 0.1 nM 125I-laminin, overnight 4° C.
T1 construct: endogenous in cells; host or cells: T47-D or SK HEP-1 cells (whole-cell suspension)
Protocol: ^125I-laminin was prepared using ^125I-labelled sodium iodide (Amersham, UK) and immobilised chloramine-T (Iodobeads; Pierce, Ill.). Prior to use, the beads were washed with 500 μl phosphate buffer (pH 6.5) to remove excess reagent from the support. These were then allowed to air dry and individual beads added to a solution of carrier free Na^125I, diluted with iodination buffer (phosphate buffer pH 7.4). The beads were allowed to equilibrate for 5 min.
Laminin (10 μg in 10 μl) was then diluted into the iodination buffer and the system incubated at 20° C. for 15 min. The solution was then removed from the reaction vessel and excess Na^125I and unincorporated ^125I2 separated from the iodinated protein by gel filtration on a GF-5 exclusion column (Pierce, Ill.). Iodinated laminin fractions were recovered at a specific activity of approximately 1.2 mCi/mg protein (864 Ci/mmol).
Near confluent cultures of T47-D or SK HEP-1 cells were removed from monolayer with 0.02% EGTA and passed through a G-25 syringe needle to produce single cell suspensions. Aliquots of each cell type (10^6 cells/ml) were dispensed into separate Ependorf tubes (1 ml each) and pelleted. The cells were then resuspended in 1 ml ice-cold RPMI (SK HEP-1) or DMEM (T47-D) containing 0.1% BSA and either laminin or synthetic peptide at the concentrations indicated. Iodinated laminin was then added to each cell suspension to give a final ^125I-laminin concentration of 0.1 nM (approximately 50,000 cpm). These mixtures were incubated overnight at 4° C.
The tubes were then microfuged at 10,000 g and the supernatant removed. After washing the pellet with 500 μl CFS, the remaining radioactivity was determined using a gamma radiation counter. Non-specific binding was determined by incubating cells with a 1000-fold molar excess of unlabelled laminin. All estimations were carried out in triplicate.
IC50 (concentration of unlabelled peptide required to produce 50% inhibition of radioligand binding) and EC50 (effective concentration for 50% inhibition of cell attachment) values were calculated using the Grafit curve-fitting programme (Erithacus Software, London, UK).

tumour cells = details: already known in the field; cited from earlier work
C57-BL/6J mice = test: Murine model of proliferative retinopathy (retinopathy of prematurity, ROP); assay type: in vivo, mouse
Protocol: Litters of 7 day old C57-BL/6J mice, together with their nursing dams, are exposed to 80% oxygen in an incubator maintained at 23° C. and with a gas exchange of 1.5 L/min for 5 days according to the protocol described by Stitt et al. (1998). On postnatal day 12 (P12) the animals are returned to room air and sacrificed at various times posthyperoxia. Animals are treated with daily i.p. injections of either laminin agonists (10 μg per head per day) or vehicle control. Groups of room air controls are maintained in parallel with hyperoxia-exposed animals. Home Office project and personal licenses are held for this work. All animals are housed and maintained in accordance with the ARVO regulations for animal care in research.
Animals are sacrificed at pre-determined key stages in the vaso-obliteration (P7–P12), ischaemia (P12 onwards) and vaso-proliferative responses (P 12–21). At sacrifice, terminally anaesthetised animals have a single eye enucleated and the retina removed to be snap-frozen for later RNA-extraction (see below). The fellow eye is either perfused with fluorescein dextran or enucleated and fixed in 4% paraformaldehyde for histology, immunohistochemistry and in situ hybridisation.

[3] = test system: Endothelial cells (SK HEP-1 and BRCE); test: Migration assay (colloidal gold track area); assay type: cell-based; details: mammalian cell lines
Protocol: The method used was basically as described by Albrecht-Buehler (1977). Briefly, coverslips (22×22 mm) were treated in 5% detergent (7×; ICN Biomedicals) and washed in alcohol to remove grease. After drying, they were immersed in gelatin solution (Sigma, 300 Bloom; 0.5 g in 300 ml distilled H2O) for 10 min. The coverslips were then dried by placing in a 70° C. oven for 45 min.
Colloidal gold suspension was prepared by adding 11 ml distilled H2O and 6 ml Na2CO3 (36.5 mM) to 1.8 ml AuHCl4 (14.5 mM). The mixture was heated to 95° C. at which point 1.8 ml of freshly prepared 0.1% formaldehyde solution was added; the temperature was maintained at 95° C. A suspension of colloidal gold was formed which was brown to absorbed light and blue to transmitted light.
The gold suspension, was then added to petri dishes containing individual coverslips and the plates incubated at 37° C. for 45 min. After washing with CFS (3×4 ml) to remove unattached gold particles, the coverslips were transferred to 6-well cluster dishes and UV sterilised.
Endothelial cells (SK HEP-1 and BRCE) in culture media (0.3 ml) were seeded onto the coverslips at an approximate density of 5×10^3 cells per well. The cells were allowed to plate down for 2 h at 37° C. after which the treatments were added. Assay systems were maintained for a further 18 h after which the cells were fixed using 3% gluteraldehyde in cacodylate buffer (pH 7.2).
The assays were examined using a Leica DM1RB phase contrast microscope and Q500MC image analysis system incorporating a JVC TK-1280E colour camera (Leica, Milton Keynes, UK). The track images of at least 30 cells were videocaptured and the area (representing migration response) determined for each. Statistical analysis of these areas was then carried out using Macintosh Instat software to perform both Kruskal-Wallis analysis of variance and Mann-Whitney U-tests in order to compare the treatment groups with controls.

[4] = test system: angiogenesis in the chick; test: Chick angiogenesis model; assay type: in vivo; details: chick
[5] = FIG. 1b versus 1a, 10 μg per head per day i.p.

Which “angiogenesis in the chick” value [1] does the source give for “CDPGYIGSR [Lam.β-1(925-933), CDPGYIGSR-NH2, synthetic peptide of amino acids 925–933 of the laminin β-1 chain, 67LR agonist, reference compound]” here?
The value was “inhibits angiogenesis in the chick”.

And the “receptor affinity, 125I-laminin displacement (IC50), in words” value [2]?
Its value is “equipotent”.

What about the “tumour establishment in mice” value (tumour cells) of the same sequence?
Its value is “inhibit tumour establishment in mice”.

And the “re-canalisation of areas of vaso-obliteration” value (C57-BL/6J mice; [5])?
The value was “promotes re-canalisation of areas of vaso-obliteration”.

And the “uncontrolled angiogenic response of ROP” value (C57-BL/6J mice; [5])?
Its value is “prevents the uncontrolled angiogenic response of ROP”.

And the “development of ROP” value (C57-BL/6J mice; neonates, daily intraperitoneal injections of 10 μg)?
The value was “development of ROP can be prevented”.

And the “67LR agonist/antagonist character in mammalian cell lines” value [3]?
The value was “pure agonist”.

And the “67LR agonist/antagonist character in mammalian cell lines” value ([3]; listed as laminin β-1925-933)?
The value was “pure 67LR agonist”.

And the “laminin agonist/antagonist character in chick” value [4]?
The value was “partial laminin antagonist”.
